Measurements as given in ChEMBL document CHEMBL1129995, “N-[2-[(substituted chroman-8-yl)oxy]ethyl]-4-(4-methoxyphenyl)butylamines: synthesis and wide range of antagonism at the human 5-HT1A receptor” (J Med Chem, 1997).
“And” between values parts separate entries of the source, which are not always exact repeats. Identical values can stand only once.

Key:
[1] = target: T1, Adrenergic receptor alpha-1 (Rattus norvegicus, UniProt P15823+P23944+P43140); assay: In vitro radioligand binding assay on adrenaline Alpha-1 adrenergic receptor of rat cortex using [3H]- prazosin; type: tissue-based
T1 sequence (P15823 whole entry): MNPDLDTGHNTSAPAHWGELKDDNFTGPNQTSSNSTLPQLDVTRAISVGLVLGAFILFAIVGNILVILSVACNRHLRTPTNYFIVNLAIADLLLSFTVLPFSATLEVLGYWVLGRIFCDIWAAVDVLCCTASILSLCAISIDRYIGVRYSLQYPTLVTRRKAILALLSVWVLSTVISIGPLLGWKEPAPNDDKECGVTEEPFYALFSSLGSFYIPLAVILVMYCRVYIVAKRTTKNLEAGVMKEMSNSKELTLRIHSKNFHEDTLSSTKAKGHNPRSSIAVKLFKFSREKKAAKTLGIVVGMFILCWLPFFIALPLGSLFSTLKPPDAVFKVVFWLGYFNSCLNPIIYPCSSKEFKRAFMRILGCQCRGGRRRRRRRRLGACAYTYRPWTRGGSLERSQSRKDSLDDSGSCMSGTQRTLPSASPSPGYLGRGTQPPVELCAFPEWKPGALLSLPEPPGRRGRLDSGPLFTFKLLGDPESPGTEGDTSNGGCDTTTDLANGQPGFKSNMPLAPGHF
T1 sequence (P23944 whole entry): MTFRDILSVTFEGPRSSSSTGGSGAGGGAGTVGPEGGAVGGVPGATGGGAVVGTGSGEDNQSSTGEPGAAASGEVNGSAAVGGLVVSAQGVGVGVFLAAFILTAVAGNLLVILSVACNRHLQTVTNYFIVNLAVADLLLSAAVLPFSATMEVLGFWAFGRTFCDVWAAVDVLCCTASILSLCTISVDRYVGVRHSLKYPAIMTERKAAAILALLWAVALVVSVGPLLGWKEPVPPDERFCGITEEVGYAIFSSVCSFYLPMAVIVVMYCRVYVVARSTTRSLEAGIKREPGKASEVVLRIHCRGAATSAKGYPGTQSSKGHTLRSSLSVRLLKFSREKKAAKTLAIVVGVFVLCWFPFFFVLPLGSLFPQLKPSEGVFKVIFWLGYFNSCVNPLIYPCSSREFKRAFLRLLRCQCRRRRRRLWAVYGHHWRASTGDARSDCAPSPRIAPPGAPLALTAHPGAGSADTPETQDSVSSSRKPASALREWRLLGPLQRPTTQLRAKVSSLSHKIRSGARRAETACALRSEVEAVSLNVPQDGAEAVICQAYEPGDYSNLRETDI
T1 sequence (P43140 whole entry): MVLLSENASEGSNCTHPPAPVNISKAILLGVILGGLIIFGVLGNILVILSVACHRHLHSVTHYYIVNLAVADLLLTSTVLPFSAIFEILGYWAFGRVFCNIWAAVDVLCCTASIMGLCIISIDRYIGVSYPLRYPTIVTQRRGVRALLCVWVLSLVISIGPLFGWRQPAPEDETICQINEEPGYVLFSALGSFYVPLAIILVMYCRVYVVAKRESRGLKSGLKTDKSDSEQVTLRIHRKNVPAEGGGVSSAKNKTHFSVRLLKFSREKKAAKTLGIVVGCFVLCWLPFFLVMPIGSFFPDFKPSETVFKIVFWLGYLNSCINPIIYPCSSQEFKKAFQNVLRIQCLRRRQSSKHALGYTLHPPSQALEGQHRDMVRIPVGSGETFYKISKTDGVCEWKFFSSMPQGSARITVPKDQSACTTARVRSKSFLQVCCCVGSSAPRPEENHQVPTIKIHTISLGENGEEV

[2] = target: T2, 5-hydroxytryptamine receptor 1A (Rattus norvegicus, UniProt P19327); assay: Displacement of [3H]8-OH-DPAT from rat hippocampal 5-hydroxytryptamine 1A receptor; type: tissue-based, Hippocampus
T2 sequence (P19327 whole entry): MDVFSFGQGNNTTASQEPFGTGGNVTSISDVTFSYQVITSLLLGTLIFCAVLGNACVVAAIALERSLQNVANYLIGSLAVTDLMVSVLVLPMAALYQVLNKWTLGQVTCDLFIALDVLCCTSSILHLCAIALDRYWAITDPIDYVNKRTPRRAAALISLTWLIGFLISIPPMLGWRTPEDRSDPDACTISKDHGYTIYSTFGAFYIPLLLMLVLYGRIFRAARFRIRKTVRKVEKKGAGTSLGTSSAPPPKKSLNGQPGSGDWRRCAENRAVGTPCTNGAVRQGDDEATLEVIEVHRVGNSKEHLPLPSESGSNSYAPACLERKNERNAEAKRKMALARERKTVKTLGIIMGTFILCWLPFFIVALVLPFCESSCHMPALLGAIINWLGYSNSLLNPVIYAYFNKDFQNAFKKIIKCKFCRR

[3] = target: T2, 5-hydroxytryptamine receptor 1A; assay: In vitro radioligand binding assay on 5-hydroxytryptamine 1A receptor using [3H]8-OH-DPAT in rat hippocampus; type: tissue-based
D(2) dopamine receptor = D(2) dopamine receptor (Rattus norvegicus, UniProt P61169); assay: In vitro radioligand binding assay on Dopamine receptor D2 of rat striatum using [3H]- spiperone; type: tissue-based
D(2) dopamine receptor, sequence (P61169 whole entry): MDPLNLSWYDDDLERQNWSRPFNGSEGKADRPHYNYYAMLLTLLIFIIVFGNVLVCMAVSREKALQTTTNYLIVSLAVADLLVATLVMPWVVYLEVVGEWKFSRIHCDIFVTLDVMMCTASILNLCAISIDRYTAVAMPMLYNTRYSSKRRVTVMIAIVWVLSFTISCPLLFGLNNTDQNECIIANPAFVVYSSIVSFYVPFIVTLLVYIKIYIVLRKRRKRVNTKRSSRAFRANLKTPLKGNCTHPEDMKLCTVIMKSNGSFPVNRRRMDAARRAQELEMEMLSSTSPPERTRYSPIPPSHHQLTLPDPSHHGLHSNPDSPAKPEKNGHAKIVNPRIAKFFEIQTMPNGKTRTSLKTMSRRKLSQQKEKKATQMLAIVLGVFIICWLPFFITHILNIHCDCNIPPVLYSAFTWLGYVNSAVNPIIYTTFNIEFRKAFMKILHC

## COc1ccccc1N1CCN(C[C@@H](C(=O)NC(C)(C)C)c2ccccc2)CC1
[1]
  IC50: 1490 nM
  Ki: 897 nM
[2]
  Ki: 27.9 nM
[3]
  IC50: 33.9 nM
D(2) dopamine receptor
  Ki: 176 nM

## CCCN(CCC)[C@H]1CCc2c(F)ccc(O)c2C1
[1]
  Ki: 6080 nM
[2]
  Ki: 46 nM
D(2) dopamine receptor
  Ki: 614 nM and 400 nM

## COc1ccc(CCCCNCCOc2c(F)ccc3c2OCCC3)cc1
[1]
  Ki: 71.5 nM
[2]
  Ki: 0.35 nM
D(2) dopamine receptor
  Ki: 21.3 nM

## COc1ccc(CCCCNCCOc2cc(OC)cc3c2OCCC3)cc1
[1]
  Ki: 27.9 nM
[2]
  Ki: 3.07 nM
D(2) dopamine receptor
  Ki: 1.75 nM

## COc1ccc(CCCCNCCOc2cc(F)cc3c2OCCC3)cc1
[1]
  Ki: 2.71 nM
[2]
  Ki: 0.221 nM
D(2) dopamine receptor
  Ki: 0.259 nM

## COc1ccc(CCCCNCCOc2cc(O)cc3c2OCCC3)cc1
[1]
  Ki: 98.4 nM
[2]
  Ki: 0.271 nM
D(2) dopamine receptor
  Ki: 1.76 nM

## COc1ccc(CCCCNCCOc2cc(Cl)cc3c2OCCC3)cc1
[1]
  Ki: 14.3 nM
[2]
  Ki: 1.29 nM
D(2) dopamine receptor
  Ki: 0.489 nM

## COc1ccc(CCCCNCCOc2ccc(F)c3c2OCCC3)cc1
[1]
  Ki: 8.77 nM
[2]
  Ki: 0.051 nM
D(2) dopamine receptor
  Ki: 3.53 nM

## COc1ccc(CCCCNCCOc2cccc3c2OCCC3)cc1
[1]
  Ki: 5.19 nM
[2]
  Ki: 0.118 nM
D(2) dopamine receptor
  Ki: 0.581 nM

## O=C1C2C(C(=O)N1CCCCN1CCN(c3ncccn3)CC1)[C@H]1CC[C@@H]2C1 (some centres undefined)
[1]
  Ki: 1260 nM
[2]
  Ki: 21.5 nM and 25 nM

## COc1ccc(CCCCNCCOc2cc(C)cc3c2OCCC3)cc1
[1]
  Ki: 35.1 nM
[2]
  Ki: 0.779 nM
D(2) dopamine receptor
  Ki: 1.79 nM
